# Experimental data reported in article PMC9763021, “Comprehensive Assessment of Biomolecular Interactions of Morpholine-Based Mixed Ligand Cu(II) and Zn(II) Complexes of 2,2′-Bipyridine as Potential Anticancer and SARS-CoV-2 Agents: A Synergistic Experimental and Structure-Based Virtual Screening” (Bioinorganic Chemistry and Applications, 2022).
# How the values were obtained:
# [1] = Nitric oxide scavenging assay; assay type: biochemical; settings: for % Inhibition nitric oxide: 546 nm
# Description: (§1) All samples were evaluated for their scavenging ability with the help of UV-visible spectrophotometer at different concentrations of 40, 80, 120, 160, 200, and 240 μM [6, 28]. While performing the antioxidant properties for the DPPH, hydroxyl, superoxide, and nitric oxide radical scavenging, the absorbance at 517, 230, 590, and 546 nm, respectively, was closely observed. In addition, the observed IC50 values of all samples were compared with ascorbic acid.
# The diffusible nitric oxide free radical is a crucial chemical mediator, which assists in overcoming diverse chronological human diseases. The NO free radical scavenging potential for all test samples was also carried out at 546 nm. It monitored the alterations in electronic absorption intensity of the nitric oxide radical inhibition outcome concerning the sample concentrations. When the test sample concentration rises, the nitric oxide free inhibition effectiveness also increases. The measured % of nitric oxide radical scavenging capability for all samples at 240 μM was obtained in the subsequent order (ascorbic acid) 72.73 > (1a) 65.47 > (2a) 58.43 > (HL) 51.62.
# [2] = Superoxide scavenging assay; assay type: biochemical; settings: for % Inhibition superoxide: 590 nm
# Description: as §1
# A vital enzyme catalyst in the body's defence against free radicals, superoxide dismutase (SOD) quickly and efficiently reduces toxicity and cellular damage by exchanging superoxide with water (or) harmless molecules. The % of inhibition for all substances was analyzed at 590 nm. The outcomes were obtained in the subsequent order: (ascorbic acid) 84.85 > (1a) 67.17 > (2a) 58.18 > (HL) 50.42.
# Pseudomonas aeruginosa = assay: Agar disc diffusion, strain D; assay type: cell-based; design: (inhibition %): concentration or dose not given beside the values; settings: for diameter of the clear zone inhibition: control = 6 mm
# Description: In-vitro antimicrobial properties were evaluated for all samples by the agar disc diffusion method towards different fungal and bacterial strains. Additionally, the reported inhibition zone values were comparatively analyzed with the standard antifungal drugs ketoconazole and amphotericin B as well as the standard antibiotic medications streptomycin and amikacin.
# The current research has a curious focus on the in vitro antimicrobial properties of biological systems because these studies are crucial for developing effective antibacterial and antifungal medications. […] It can also be spelled out based on the chelation theory proposed by Overtone and Tweedy. Chelation theory points out that the partial exchanging of the positive charge of the metal center with donor moieties, and overlap of the ligand orbitals will reduce the greater degree of the metal ion's polarity, which ultimately rises the delocalization of π and d electrons over the full chelated ring system. By raising the size of the metal ion due to the retarding of polarization, chelation may also enhance the complexes' lipophilic characteristics, which further stimulate the lipid membrane permeability and break down the bacteria' enzymes responsible for cell wall formation, therefore slowing down the regular cell processes. By preventing the production of cell walls/proteins/DNA, including by obstructing folate metabolism and the cytoplasmic membrane, antimicrobial drugs frequently either fully eliminate microbes or only prevent their cell growth. Additionally, the samples' mode of action may be employed in disrupting the cell's respiration process by forming an H-bond during the morpholine-fused iminic group coordinated with the active metal center of its components, inhibiting proliferation of the cell. […] The difference in the antimicrobial efficacy of some of the compounds towards various microorganisms influences on the impermeability of the cells of the germs or the diversity of ribosomes of the microbes. The % of the inhibition of all substances is estimated from (45) (Table 9).
# (A, B, C, D, and E are represented as gram negative bacteria species Escherichia coli, Salmonella enteric serovar typhi, Salmonella enteric serovar typhi, Pseudomonas aeruginosa, and Shigella flexneri, respectively. F & G are denoted as gram positive bacteria species Staphylococcus aureus and Bacillus cereus. H, I, and J are represented as fungal strains Aspergillus niger, Candida albicans, and Mucor indicus. Standard drugs for bacterial strains: Amikacin & Streptomycin Standard drugs for fungal strains: Ketoconazole and Amphotericin B. [Control (DMSO) = 6 mm].(44) Inhibition %=T–C/T×100, where T and C are represented as the diameter of microbial growth of the sample plates and the control plate (6 mm), respectively. Error limits ±2.5–5.0% (P ≤ 0.05).
SMILES,% Inhibition nitric oxide ([1]; 40 µM) [%],% Inhibition nitric oxide ([1]; 80 µM) [%],% Inhibition nitric oxide ([1]; 120 µM) [%],% Inhibition nitric oxide ([1]; 160 µM) [%],% Inhibition nitric oxide ([1]; 200 µM) [%],% Inhibition nitric oxide ([1]; 240 µM) [%],% Inhibition superoxide ([2]; 40 µM) [%],% Inhibition superoxide ([2]; 80 µM) [%],% Inhibition superoxide ([2]; 120 µM) [%],% Inhibition superoxide ([2]; 160 µM) [%],% Inhibition superoxide ([2]; 200 µM) [%],% Inhibition superoxide ([2]; 240 µM) [%],(inhibition %) (Pseudomonas aeruginosa) [%],diameter of the clear zone inhibition (Pseudomonas aeruginosa) [mm],IC50 [1] [µM],IC50 [2] [µM]
"[O-]c1ccccc1N=Cc1ccc(N2CCOCC2)cc1.[O-]c1ccccc1N=Cc1ccc(N2CCOCC2)cc1.[Zn+2].c1ccc(-c2ccccn2)nc1 [(2a), [Zn(L)2(bpy)]]",14.37,21.59,28.87,37.69,44.73,58.43,06.32,12.67,24.14,40.20,51.92,58.18,33,09,,
"[Cu+2].[O-]c1ccccc1N=Cc1ccc(N2CCOCC2)cc1.[O-]c1ccccc1N=Cc1ccc(N2CCOCC2)cc1.c1ccc(-c2ccccn2)nc1 [(1a), [Cu(L)2(bpy)]]",17.07,24.95,35.06,42.14,51.35,65.47,08.32,16.45,31.86,47.69,60.03,67.17,33,09,200,200
"Oc1ccccc1N=Cc1ccc(N2CCOCC2)cc1 [(HL), 2-(4-morpholinobenzylideneamino)phenol]",11.42,18.26,24.28,33.21,40.53,51.62,05.23,10.74,18.85,33.55,40.91,50.42,25,08,,
